# Data: PubChem BioAssay AID1963830 (Molecular Pharmacology Branch, DTP, NCI, 2024)
# Test system: 922993-354-T-J3-PDC complex spheroid viability
# Experiment: Anticancer human tumor 922993-354-T-J3-PDC patient-derived endometrial carcinoma cell line growth inhibition [POLQ]
# Settings: for IC50: curve of first compound; for viability, T/C: stronger effect = lower value
# How it was run: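 PDC + HUVEC + MSC complex spheroids; POLQ inhibitors ± partner drugs; top conc. at/near clinical Cmax, else 10 microM (SN-38 1 microM), half-log dilutions; 37 degrees C, 5% CO2.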
# [1] = second compound 0.0316 µM, first compound 0.0316 µM
# [2] = second compound 0.0316 µM, first compound 0.1 µM
# [3] = second compound 0.0316 µM, first compound 0.316 µM
# [4] = second compound 0.0316 µM, first compound 1 µM
# [5] = second compound 0.1 µM, first compound 0.0316 µM
# [6] = second compound 0.1 µM, first compound 0.1 µM
# [7] = second compound 0.1 µM, first compound 0.316 µM
# [8] = second compound 0.1 µM, first compound 1 µM
# [9] = second compound 0.316 µM, first compound 0.0316 µM
# [10] = second compound 0.316 µM, first compound 0.1 µM
# [11] = second compound 0.316 µM, first compound 0.316 µM
# [12] = second compound 0.316 µM, first compound 1 µM
# [13] = second compound 1 µM, first compound 0.0316 µM
# [14] = second compound 1 µM, first compound 0.1 µM
# [15] = second compound 1 µM, first compound 0.316 µM
# [16] = second compound 1 µM, first compound 1 µM
# [17] = second compound 3.16 µM, first compound 0.0316 µM
# [18] = second compound 3.16 µM, first compound 0.1 µM
# [19] = second compound 3.16 µM, first compound 0.316 µM
# [20] = second compound 3.16 µM, first compound 1 µM
# [21] = second compound 10 µM, first compound 0.0316 µM
# [22] = second compound 10 µM, first compound 0.1 µM
# [23] = second compound 10 µM, first compound 0.316 µM
# [24] = second compound 10 µM, first compound 1 µM
# [25] = second compound 0.0316 µM, first compound 3.16 µM
# [26] = second compound 0.0316 µM, first compound 10 µM
# [27] = second compound 0.1 µM, first compound 3.16 µM
# [28] = second compound 0.1 µM, first compound 10 µM
# [29] = second compound 0.316 µM, first compound 3.16 µM
# [30] = second compound 0.316 µM, first compound 10 µM
# [31] = second compound 1 µM, first compound 3.16 µM
# [32] = second compound 1 µM, first compound 10 µM
# [33] = second compound 3.16 µM, first compound 3.16 µM
# [34] = second compound 3.16 µM, first compound 10 µM
# [35] = second compound 10 µM, first compound 3.16 µM
# [36] = second compound 10 µM, first compound 10 µM
# 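Further: spheroids exposed to the agents for one week.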
# 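Wherever viability, T/C is given: 100% = DMSO vehicle control wells.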
smiles,measurement,setting,value
C=CCn1c(=O)c2cnc(Nc3ccc(N4CCN(C)CC4)cc3)nc2n1-c1cccc(C(C)(C)O)n1 + Cc1cccc(N(C)C(=O)C2C(O)CCN2c2nc(C)cc(C(F)(F)F)c2C#N)c1,IC50,second compound 0.0316 µM,> 1 µM
same,IC50,second compound 0.1 µM,> 1 µM
same,IC50,second compound 0.316 µM,> 1 µM
same,IC50,second compound 1 µM,> 1 µM
same,IC50,second compound 3.16 µM,> 1 µM
same,IC50,second compound 10 µM,> 1 µM
same,"viability, T/C","second compound 0.0316 µM, first compound 0.00316 µM",101%
same,"viability, T/C","second compound 0.0316 µM, first compound 0.01 µM",105%
same,"viability, T/C",[1],102%
same,"viability, T/C",[2],101%
same,"viability, T/C",[3],105%
same,"viability, T/C",[4],102%
same,"viability, T/C","second compound 0.1 µM, first compound 0.00316 µM",105%
same,"viability, T/C","second compound 0.1 µM, first compound 0.01 µM",104%
same,"viability, T/C",[5],99.5%
same,"viability, T/C",[6],103%
same,"viability, T/C",[7],105%
same,"viability, T/C",[8],101%
same,"viability, T/C","second compound 0.316 µM, first compound 0.00316 µM",103%
same,"viability, T/C","second compound 0.316 µM, first compound 0.01 µM",106%
same,"viability, T/C",[9],98.1%
same,"viability, T/C",[10],104%
same,"viability, T/C",[11],104%
same,"viability, T/C",[12],103%
same,"viability, T/C","second compound 1 µM, first compound 0.00316 µM",105%
same,"viability, T/C","second compound 1 µM, first compound 0.01 µM",101%
same,"viability, T/C",[13],106%
same,"viability, T/C",[14],99.1%
same,"viability, T/C",[15],104%
same,"viability, T/C",[16],104%
same,"viability, T/C","second compound 3.16 µM, first compound 0.00316 µM",99.9%
same,"viability, T/C","second compound 3.16 µM, first compound 0.01 µM",101%
same,"viability, T/C",[17],100%
same,"viability, T/C",[18],101%
same,"viability, T/C",[19],104%
same,"viability, T/C",[20],99%
same,"viability, T/C","second compound 10 µM, first compound 0.00316 µM",103%
same,"viability, T/C","second compound 10 µM, first compound 0.01 µM",97.1%
same,"viability, T/C",[21],98.5%
same,"viability, T/C",[22],97.3%
same,"viability, T/C",[23],103%
same,"viability, T/C",[24],94.2%
CC(C)n1c(=O)n(C)c2cnc3cc(F)c(-c4ccc(OCCCN5CCCCC5)nc4)cc3c21 + Cc1cccc(N(C)C(=O)C2C(O)CCN2c2nc(C)cc(C(F)(F)F)c2C#N)c1,IC50,second compound 0.0316 µM,> 10 µM
same,IC50,second compound 0.1 µM,> 10 µM
same,IC50,second compound 0.316 µM,> 10 µM
same,IC50,second compound 1 µM,> 10 µM
same,IC50,second compound 3.16 µM,> 10 µM
same,IC50,second compound 10 µM,> 10 µM
same,"viability, T/C",[1],101%
same,"viability, T/C",[2],99.8%
same,"viability, T/C",[3],99.9%
same,"viability, T/C",[4],106%
same,"viability, T/C",[25],97.4%
same,"viability, T/C",[26],66.9%
same,"viability, T/C",[5],95.3%
same,"viability, T/C",[6],108%
same,"viability, T/C",[7],108%
same,"viability, T/C",[8],97.9%
same,"viability, T/C",[27],81.3%
same,"viability, T/C",[28],74.4%
same,"viability, T/C",[9],114%
same,"viability, T/C",[10],109%
same,"viability, T/C",[11],104%
same,"viability, T/C",[12],102%
same,"viability, T/C",[29],88.2%
same,"viability, T/C",[30],77%
same,"viability, T/C",[13],114%
same,"viability, T/C",[14],112%
same,"viability, T/C",[15],110%
same,"viability, T/C",[16],99.7%
same,"viability, T/C",[31],90.7%
same,"viability, T/C",[32],68.9%
same,"viability, T/C",[17],100%
same,"viability, T/C",[18],109%
same,"viability, T/C",[19],102%
same,"viability, T/C",[20],90.8%
same,"viability, T/C",[33],95.5%
same,"viability, T/C",[34],80.3%
same,"viability, T/C",[21],101%
same,"viability, T/C",[22],104%
same,"viability, T/C",[23],107%
same,"viability, T/C",[24],92.4%
same,"viability, T/C",[35],92.3%
same,"viability, T/C",[36],70.5%
CCCS(=O)(=O)Nc1ccc(F)c(C(=O)c2c[nH]c3ncc(-c4ccc(Cl)cc4)cc23)c1F + Cc1cccc(N(C)C(=O)C2C(O)CCN2c2nc(C)cc(C(F)(F)F)c2C#N)c1,IC50,second compound 0.0316 µM,> 10 µM
same,IC50,second compound 0.1 µM,> 10 µM
same,IC50,second compound 0.316 µM,> 10 µM
same,IC50,second compound 1 µM,> 10 µM
same,IC50,second compound 3.16 µM,> 10 µM
same,IC50,second compound 10 µM,> 10 µM
same,"viability, T/C",[1],103%
same,"viability, T/C",[2],99.5%
same,"viability, T/C",[3],103%
same,"viability, T/C",[4],98.1%
same,"viability, T/C",[25],106%
same,"viability, T/C",[26],97.5%
same,"viability, T/C",[5],101%
same,"viability, T/C",[6],102%
same,"viability, T/C",[7],103%
same,"viability, T/C",[8],100%
same,"viability, T/C",[27],102%
same,"viability, T/C",[28],90.1%
same,"viability, T/C",[9],104%
same,"viability, T/C",[10],101%
same,"viability, T/C",[11],105%
same,"viability, T/C",[12],104%
same,"viability, T/C",[29],103%
same,"viability, T/C",[30],95.8%
same,"viability, T/C",[13],102%
same,"viability, T/C",[14],99.8%
same,"viability, T/C",[15],100%
same,"viability, T/C",[16],103%
same,"viability, T/C",[31],105%
same,"viability, T/C",[32],95%
same,"viability, T/C",[17],102%
same,"viability, T/C",[18],103%
same,"viability, T/C",[19],101%
same,"viability, T/C",[20],97.7%
same,"viability, T/C",[33],107%
same,"viability, T/C",[34],94.5%
same,"viability, T/C",[21],98.6%
same,"viability, T/C",[22],103%
same,"viability, T/C",[23],104%
same,"viability, T/C",[24],100%
same,"viability, T/C",[35],108%
same,"viability, T/C",[36],93.2%
